Measured values: US5143906A, “Kedarcidin antitumor chromophore and pharmaceutical composition containing same” (Bristol-Myers Squibb Company, priority 1991, dated 1992)
Values after ≈ are worked out from the molar mass of the structure shown. “Also recorded” adds a separate entry of the source.

Tests used:
[1] = system: human ovarian carcinoma A2780 drug sensitive cell line; experiment: In vitro cytotoxicity assay (XTT), A2780; format: cell-based
Protocol: (§1) The A2780/DDP cell line is reported to be resistant through enhanced DNA repair mechanisms and elevated GSH/GST levels. Cells were cultured in McCoy's media and 10% fetal bovine serum. When in log phase growth, 4×10^3 cells/well were plated into 96 well microtiter plates and incubated at 37° C. in […] /5% CO2 for 24 hours to allow cell attachment. Compounds were added to the top row of wells, serially diluted (4 fold dilutions) and incubated for an additional 72 hours. The number of viable cells in each well was then quantitated as previously described^2 by adding 0.05 mg/ml final concentration tetrazolium stain (XTT) in the presence of 0.005 mM final concentration phenazine methosulfate. After incubation at room temperature for 3 hours to allow color development, optical density values were measured using a Dynatech MR600 plate reader at […]. IC50 values (drug concentration inhibiting cell growth by 50%) were calculated using linear regression analysis of the optical density readings. Triplicate determinations on separate 96 well plates were done for each drug on each cell line tested.

[2] = system: HCT116/VM46 drug resistant cell line; experiment: In vitro cytotoxicity assay (XTT), HCT116/VM46; format: cell-based, human
Protocol: as §1

[3] = system: several human tumor cell lines; experiment: In vitro cytotoxicity assay, several human tumor cell lines (summary); format: cell-based
Excerpt: as §1, with “The cell lines used to evaluate in vitro cytotoxic potency include the human colon adenocarcinoma HCT116 drug sensitive line, HCT 116/VP35 and HCT116/VM46 daughter drug resistant cell lines that have low Topoisomerase II and elevated P-170 glycoprotein levels^1; respectively, and the human ovarian carcinoma A2780 drug sensitive and the A2780/DDP daughter drug resistant cell line. The A2780/DDP” for “The A2780/DDP”, “density readings. […]” for “density readings. Triplicate determinations on separate 96 well plates were done for each drug on each cell line tested.”

[4] = system: human colon adenocarcinoma HCT116 drug sensitive line; experiment: In vitro cytotoxicity assay (XTT), HCT116; format: cell-based
Protocol: as §1

[5] = system: iv implanted P388 leukemia; experiment: Antitumor activity against iv implanted P388 leukemia; format: in vivo, murine (CDF1 mice)
Excerpt: (§2) The P388 tumor was maintained in ascitic form in DBA/2 mice. Experimental tumor models used CDF^1 mice implanted via the intraperitoneal or intravenous route with 1×10^6 leukemia cells on day 0 and dosed with drugs according to the indicated route and schedule. Mice were weighed on day 0 and on day 5 or 6. Weight loss of 20% or greater was an indicator of drug toxicity. Each dose group consisted of 6 mice with 10 mice in the untreated control group. The dosing schedule was Q1DX1;1. Death checks were performed daily and the median life span of each group determined. […] Experiments were terminated on or about day 30.

[6] = system: HCT116/VP35 drug resistant cell line; experiment: In vitro cytotoxicity assay (XTT), HCT116/VP35; format: cell-based, human
Protocol: as §1

[7] = system: sc implanted B16 melanoma; experiment: Antitumor activity against sc implanted B16 melanoma; format: in vivo, murine (BDF1 mice); details: for % T/C / Av. wgt. change / Med. surv. time / No. of mice alive on d 5: iv
Protocol: The B-16 murine melanoma was maintained as a subcutaneous growing tumor in C57BL/6 mice. Experimental tumor models used BDF^1 mice implanted with a 25 mg tumor fragment implanted subcutaneously via trochar on day 0. Kedarcidin chromophore was administered iv on a Q1DX1;1 schedule. Mice were weighed on day 0 and on day 9.

Stability in solution = format: physicochemical
P388 murine leukemia = P388 murine leukemia models, ip and iv implanted (summary); format: in vivo, murine (CDF1 mice)
Excerpt: as §2

Compound: COc1c(OC(C)C)cc2cc(O)c(C(=O)N[C@@H]3CC(=O)OC[C@@H](O[C@H]4C[C@H](O)[C@H](N(C)C)[C@H](C)O4)/C4=C/C#C[C@@H]5O[C@]56C(=C[C@H](Oc5ccc3nc5Cl)[C@@H]6O[C@H]3C[C@@](C)(O)[C@@H](O)[C@H](C)O3)C#C4)cc2c1OC [Kedarcidin chromophore]
- IC50 ([1]; A2780, 72 h, VP-16 values: mean of triplicate determinations from last 6 experiments): 0.2 ng/mL (≈ 0.194 nM)
- fold more potent than VP-16 ([1]; VP-16 sensitive cell line (A2780)): 285 fold
- cross-resistance with VP-16 ([2]; HCT116/VM46): not cross-resistant
- IC50 ([2]; HCT116/VM46, 72 h, VP-16 values: mean of triplicate determinations from last 6 experiments): 0.3 ng/mL (≈ 0.291 nM)
- ability to inhibit cell growth ([3]; compared to VP-16): extremely potent
- antitumor in vitro activity ([3]; several human tumor cell lines): potent antitumor in vitro activity
- IC50 ([4]; HCT116, 72 h, VP-16 values: mean of triplicate determinations from last 6 experiments): 0.4 ng/mL (≈ 0.388 nM)
- fold more potent than VP-16 ([4]; VP-16 sensitive cell line (HCT116)): 1725 fold
- % T/C ([5]; Exp. 8305, 0.125 mg/kg/dose): 186%
- Av. wgt. change ([5]; Exp. 8305, 0.125 mg/kg/dose): -0.3 g
- Med. surv. time ([5]; Exp. 8305, 0.125 mg/kg/dose): 13.0
- No. of mice alive on d 5 ([5]; Exp. 8305, 0.125 mg/kg/dose): 6/6
- % T/C ([5]; Exp. 8305, 0.25 mg/kg/dose): 214%
- Av. wgt. change ([5]; Exp. 8305, 0.25 mg/kg/dose): -0.8 g
- Med. surv. time ([5]; Exp. 8305, 0.25 mg/kg/dose): 15.0
- No. of mice alive on d 5 ([5]; Exp. 8305, 0.25 mg/kg/dose): 6/6
- % T/C ([5]; Exp. 8305, 0.5 mg/kg/dose): 107%
- Av. wgt. change ([5]; Exp. 8305, 0.5 mg/kg/dose): -2.9 g
- Med. surv. time ([5]; Exp. 8305, 0.5 mg/kg/dose): 7.5
- No. of mice alive on d 5 ([5]; Exp. 8305, 0.5 mg/kg/dose): 6/6
- % T/C ([5]; Exp. 8305, 1 mg/kg/dose): TOX
- Med. surv. time ([5]; Exp. 8305, 1 mg/kg/dose): TOX
- No. of mice alive on d 5 ([5]; Exp. 8305, 1 mg/kg/dose): 0/6
- % T/C ([5]; Exp. 8305, 2 mg/kg/dose): TOX
- Med. surv. time ([5]; Exp. 8305, 2 mg/kg/dose): TOX
- No. of mice alive on d 5 ([5]; Exp. 8305, 2 mg/kg/dose): 0/6
- % T/C ([5]; Exp. 8305, 4 mg/kg/dose): TOX
- Med. surv. time ([5]; Exp. 8305, 4 mg/kg/dose): TOX
- No. of mice alive on d 5 ([5]; Exp. 8305, 4 mg/kg/dose): 0/6
- optimal dose ([5]; Exp. 8305, iv one day after tumor implant): 0.25 mg/kg/inj
- % T/C ([5]; Exp. 8328, 0.125 mg/kg/dose): 186%
- Av. wgt. change ([5]; Exp. 8328, 0.125 mg/kg/dose): -2.5 g
- Med. surv. time ([5]; Exp. 8328, 0.125 mg/kg/dose): 13.0
- No. of mice alive on d 5 ([5]; Exp. 8328, 0.125 mg/kg/dose): 6/6
- % T/C ([5]; Exp. 8328, 0.25 mg/kg/dose): 100%
- Av. wgt. change ([5]; Exp. 8328, 0.25 mg/kg/dose): -2.4 g
- Med. surv. time ([5]; Exp. 8328, 0.25 mg/kg/dose): 7.0
- No. of mice alive on d 5 ([5]; Exp. 8328, 0.25 mg/kg/dose): 6/6
- % T/C ([5]; Exp. 8328, 0.5 mg/kg/dose): TOX
- Med. surv. time ([5]; Exp. 8328, 0.5 mg/kg/dose): TOX
- No. of mice alive on d 5 ([5]; Exp. 8328, 0.5 mg/kg/dose): 0/6
- % T/C ([5]; Exp. 8328, 1.0 mg/kg/dose): TOX
- Med. surv. time ([5]; Exp. 8328, 1.0 mg/kg/dose): TOX
- No. of mice alive on d 5 ([5]; Exp. 8328, 1.0 mg/kg/dose): 0/6
- optimal dose ([5]; Exp. 8328, iv, Q1DX1;1): 0.125 mg/kg/inj
- cross-resistance with VP-16 ([6]; HCT116/VP35): not cross-resistant
- IC50 ([6]; HCT116/VP35, 72 h, VP-16 values: mean of triplicate determinations from last 6 experiments): 0.3 ng/mL (≈ 0.291 nM)
- activity by the lifespan criterion ([7]; Exp. 796): active by the lifespan criterion
- activity by the tumor growth delay criterion ([7]; Exp. 796): Neither kedarcidin chromophore or kedarcidin were active
- optimum dose ([7]; Exp. 796, iv one day after tumor implant): 0.062 mg/kg/inj
- % T/C ([7]; Exp. 796, 0.062 mg/kg/dose): 164%
- Av. wgt. change ([7]; Exp. 796, 0.062 mg/kg/dose): 1.1 g
- Med. surv. time ([7]; Exp. 796, 0.062 mg/kg/dose): 41.0
- No. of mice alive on d 5 ([7]; Exp. 796, 0.062 mg/kg/dose): 8/8
- % T/C ([7]; Exp. 796, 0.125 mg/kg/dose): 126%
- Av. wgt. change ([7]; Exp. 796, 0.125 mg/kg/dose): 1.1 g
- Med. surv. time ([7]; Exp. 796, 0.125 mg/kg/dose): 31.5
- No. of mice alive on d 5 ([7]; Exp. 796, 0.125 mg/kg/dose): 8/8
- % T/C ([7]; Exp. 796, 0.25 mg/kg/dose): TOX
- Av. wgt. change ([7]; Exp. 796, 0.25 mg/kg/dose): -1.0 g
- Med. surv. time ([7]; Exp. 796, 0.25 mg/kg/dose): TOX
- No. of mice alive on d 5 ([7]; Exp. 796, 0.25 mg/kg/dose): 2/8
- % T/C ([7]; Exp. 796, 0.5 mg/kg/dose): TOX
- Med. surv. time ([7]; Exp. 796, 0.5 mg/kg/dose): TOX
- No. of mice alive on d 5 ([7]; Exp. 796, 0.5 mg/kg/dose): 0/8
- activity and potency compared to kedarcidin ([7]; conclusion, compared directly): as active as, and slightly more potent than, kedarcidin
- antitumor activity by lifespan criterion ([7]; sc implanted B16, conclusion): significant antitumor activity; also recorded: in vivo antitumor activity
- Stability (Stability in solution): Very unstable
- Decomposition in solution (Stability in solution; in solution with benzene, methanol, chloroform and DMSO): Decomposes within hours
- efficacy and potency compared to kedarcidin (P388 murine leukemia; P388 model): as efficacious as, and slightly more potent than, kedarcidin; also recorded: as active as, and slightly more potent than, kedarcidin
- antitumor activity in P388 models (P388 murine leukemia; ip, ip or iv, iv model): both potent and efficacious; also recorded: significant antitumor activity; also recorded: in vivo antitumor activity
